Earlier results as cited in patent US20180080913A1, “SCREENING METHOD FOR MULTI-TARGET DRUGS AND/OR DRUG COMBINATIONS” (Wuhan Bio-links Technology Co., Ltd, priority 2015, published 2018).

System: human gastric barcinoma cell line MGC803
Conditions: combination of d-limonene and berberine, active ingredients of Zuo Gui Wan

SMILES	promotion of gastric cancer cell apoptosis
C=C(C)[C@H]1CC=C(C)CC1 [d-limonene]	synergistically promote gastric cancer cell apoptosis
COc1ccc2cc3[n+](cc2c1OC)CCc1cc2c(cc1-3)OCO2 [berberine]	synergistically promote gastric cancer cell apoptosis
